Laboratory results reported in the supplement of paper PMC10307832.

Legend:
Assay in all cases: relative viability (nuclei count vs DMSO), 5 days (fraction); higher = more cells survive
NCI-H838 = tested on: NCI-H838
In short: (§1)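 Lung cancer cell lines in 1536-well plates were dosed by pin tool the day after seeding, either with one drug alone or with a fixed anchor-drug dose plus five library-drug doses (not always all listed) in √10 steps. After 5 days, cells were fixed and their nuclei stained in one step (final 0.05% Triton X-100, 1% formaldehyde, 1 ug/ml Hoechst), then counted on 4× images. Relative viability is the nuclei count in treated wells divided by that in vehicle wells. Values are medians of duplicate plates.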

NCI-H23 = tested on: NCI-H23
In short: as §1

NCI-H1993 = tested on: NCI-H1993
In short: as §1

SK-LU-1 = tested on: SK-LU-1
In short: as §1

NCI-H1793 = tested on: NCI-H1793
In short: as §1

NCI-H2126 = tested on: NCI-H2126
In short: as §1

NCI-H2405 = tested on: NCI-H2405
In short: as §1

NCI-H2023 = tested on: NCI-H2023
In short: as §1

NCI-H2228 = tested on: NCI-H2228
In short: as §1

ChaGo-K-1 = tested on: ChaGo-K-1
In short: as §1

A-427 = tested on: A-427
In short: as §1

ABC-1 = tested on: ABC-1
In short: as §1

UMC-11 = tested on: UMC-11
In short: as §1

NCI-H1944 = tested on: NCI-H1944
In short: as §1

NCI-H2009 = tested on: NCI-H2009
In short: as §1

COR-L23 = tested on: COR-L23
In short: as §1

LC-2-ad = tested on: LC-2-ad
In short: as §1

EMC-BAC-2 = tested on: EMC-BAC-2
In short: as §1

HCC-15 = tested on: HCC-15
In short: as §1

NCI-H1734 = tested on: NCI-H1734
In short: as §1

HCC-366 = tested on: HCC-366
In short: as §1

HCC-78 = tested on: HCC-78
In short: as §1

HARA = tested on: HARA
In short: as §1

Work on `Oc1nc(-c2ccc(C(F)(F)F)cc2)nc2c1CSCC2` [XAV939] + Cc1cc(Nc2cc(N3CCN(C)CC3)nc(Sc3ccc(NC(=O)C4CC4)cc3)n2)n[nH]1 [Tozasertib] (partner 0.1 µM) yielded a relative viability (NCI-H838; first compound 0.08 µM) of 0.274, a relative viability (NCI-H838; first compound 0.253 µM) of 0.259 and a relative viability (NCI-H838; first compound 0.8 µM) of 0.276. The relative viability (NCI-H838; first compound 2.53 µM) was 0.209, the relative viability (NCI-H23; first compound 0.08 µM) was 0.403 and the relative viability (NCI-H23; first compound 0.253 µM) was 0.373. For the same compound, the relative viability (NCI-H23; first compound 0.8 µM) was 0.343, the relative viability (NCI-H23; first compound 2.53 µM) was 0.357 and the relative viability (NCI-H1993; first compound 0.08 µM) was 0.559. For the same compound, the relative viability (NCI-H1993; first compound 0.253 µM) was 0.605, the relative viability (NCI-H1993; first compound 0.8 µM) was 0.551 and the relative viability (NCI-H1993; first compound 2.53 µM) was 0.59. For the same compound, the relative viability (SK-LU-1; first compound 0.08 µM) was 0.35, the relative viability (SK-LU-1; first compound 0.253 µM) was 0.267 and the relative viability (SK-LU-1; first compound 0.8 µM) was 0.322. For the same compound, the relative viability (SK-LU-1; first compound 2.53 µM) was 0.279, the relative viability (NCI-H1793; first compound 0.08 µM) was 0.403 and the relative viability (NCI-H1793; first compound 0.253 µM) was 0.297. For the same compound, the relative viability (NCI-H1793; first compound 0.8 µM) was 0.306, the relative viability (NCI-H1793; first compound 2.53 µM) was 0.263 and the relative viability (NCI-H2126; first compound 0.08 µM) was 0.791. The relative viability (NCI-H2126; first compound 0.253 µM) was 0.774, the relative viability (NCI-H2126; first compound 0.8 µM) was 0.778 and the relative viability (NCI-H2126; first compound 2.53 µM) was 0.651. It also gave a relative viability (NCI-H2405; first compound 0.08 µM) of 0.805, a relative viability (NCI-H2405; first compound 0.253 µM) of 0.72 and a relative viability (NCI-H2405; first compound 0.8 µM) of 0.712. It also gave a relative viability (NCI-H2405; first compound 2.53 µM) of 0.66, a relative viability (NCI-H2023; first compound 0.08 µM) of 0.391 and a relative viability (NCI-H2023; first compound 0.253 µM) of 0.334. The relative viability (NCI-H2023; first compound 0.8 µM) was 0.278, the relative viability (NCI-H2023; first compound 2.53 µM) was 0.226 and the relative viability (NCI-H2228; first compound 0.08 µM) was 0.31. The relative viability (NCI-H2228; first compound 0.253 µM) was 0.23, the relative viability (NCI-H2228; first compound 0.8 µM) was 0.247 and the relative viability (NCI-H2228; first compound 2.53 µM) was 0.255. The relative viability (ChaGo-K-1; first compound 0.08 µM) was 0.216, the relative viability (ChaGo-K-1; first compound 0.253 µM) was 0.223 and the relative viability (ChaGo-K-1; first compound 0.8 µM) was 0.222. The relative viability (ChaGo-K-1; first compound 2.53 µM) was 0.209, the relative viability (A-427; first compound 0.08 µM) was 0.238 and the relative viability (A-427; first compound 0.253 µM) was 0.164. It also gave a relative viability (A-427; first compound 0.8 µM) of 0.19, a relative viability (A-427; first compound 2.53 µM) of 0.193 and a relative viability (ABC-1; first compound 0.08 µM) of 0.126. The relative viability (ABC-1; first compound 0.253 µM) was 0.169, the relative viability (ABC-1; first compound 0.8 µM) was 0.166 and the relative viability (ABC-1; first compound 2.53 µM) was 0.165. For the same compound, the relative viability (UMC-11; first compound 0.08 µM) was 0.189, the relative viability (UMC-11; first compound 0.253 µM) was 0.205 and the relative viability (UMC-11; first compound 0.8 µM) was 0.19. It also gave a relative viability (UMC-11; first compound 2.53 µM) of 0.211, a relative viability (NCI-H1944; first compound 0.08 µM) of 0.261 and a relative viability (NCI-H1944; first compound 0.253 µM) of 0.228. The relative viability (NCI-H1944; first compound 0.8 µM) was 0.235, the relative viability (NCI-H1944; first compound 2.53 µM) was 0.224 and the relative viability (NCI-H2009; first compound 0.08 µM) was 0.84. For the same compound, the relative viability (NCI-H2009; first compound 0.253 µM) was 0.66, the relative viability (NCI-H2009; first compound 0.8 µM) was 0.713 and the relative viability (NCI-H2009; first compound 2.53 µM) was 0.647. For the same compound, the relative viability (COR-L23; first compound 0.08 µM) was 0.194, the relative viability (COR-L23; first compound 0.253 µM) was 0.195 and the relative viability (COR-L23; first compound 0.8 µM) was 0.225. It also gave a relative viability (COR-L23; first compound 2.53 µM) of 0.154, a relative viability (LC-2-ad; first compound 0.08 µM) of 0.481 and a relative viability (LC-2-ad; first compound 0.253 µM) of 0.446. It also gave a relative viability (LC-2-ad; first compound 0.8 µM) of 0.488, a relative viability (LC-2-ad; first compound 2.53 µM) of 0.381 and a relative viability (EMC-BAC-2; first compound 0.08 µM) of 0.272. For the same compound, the relative viability (EMC-BAC-2; first compound 0.253 µM) was 0.283, the relative viability (EMC-BAC-2; first compound 0.8 µM) was 0.259 and the relative viability (EMC-BAC-2; first compound 2.53 µM) was 0.201. The relative viability (HCC-15; first compound 0.08 µM) was 0.452, the relative viability (HCC-15; first compound 0.253 µM) was 0.382 and the relative viability (HCC-15; first compound 0.8 µM) was 0.394. The relative viability (HCC-15; first compound 2.53 µM) was 0.368, the relative viability (NCI-H1734; first compound 0.08 µM) was 0.243 and the relative viability (NCI-H1734; first compound 0.253 µM) was 0.206. For the same compound, the relative viability (NCI-H1734; first compound 0.8 µM) was 0.261, the relative viability (NCI-H1734; first compound 2.53 µM) was 0.293 and the relative viability (HCC-366; first compound 0.08 µM) was 0.163. For the same compound, the relative viability (HCC-366; first compound 0.253 µM) was 0.0951, the relative viability (HCC-366; first compound 0.8 µM) was 0.116 and the relative viability (HCC-366; first compound 2.53 µM) was 0.0569. The relative viability (HCC-78; first compound 0.08 µM) was 0.558, the relative viability (HCC-78; first compound 0.253 µM) was 0.373 and the relative viability (HCC-78; first compound 0.8 µM) was 0.531. It also gave a relative viability (HCC-78; first compound 2.53 µM) of 0.368, a relative viability (HARA; first compound 0.08 µM) of 0.107 and a relative viability (HARA; first compound 0.253 µM) of 0.0774. For the same compound, the relative viability (HARA; first compound 0.8 µM) was 0.102 and the relative viability (HARA; first compound 2.53 µM) was 0.103.
